We go through 3 compounds from PMC13012276 (British journal of pharmacology, 2022).

Each structure is given as a SMILES string. Values joined by “and” are separate entries in the source; they are usually repeats but may differ in a detail not shown here. Identical values can stand only once. Like-named read-outs stand apart in the source and are kept apart here. Marks after values point to notes of the source that are not given here.

The subject of assay [1] is Nav channels. Nature of the assay: CBD inhibition of Nav channels. In kind it is cell-based. Particulars: Table 1, from literature CBD values.
In assay [2] the test system is Nav channels. Particulars: ref Ghovanloo, Shuart, et al. (2018), cited from earlier work.
For assay [3], the target named is T1, human Nav1.7 channels (Homo sapiens, UniProt Q15858). In words: State-dependent inhibition of sodium currents, automated patch-clamp. In kind it is cell-based.
T1 sequence (Q15858 whole entry): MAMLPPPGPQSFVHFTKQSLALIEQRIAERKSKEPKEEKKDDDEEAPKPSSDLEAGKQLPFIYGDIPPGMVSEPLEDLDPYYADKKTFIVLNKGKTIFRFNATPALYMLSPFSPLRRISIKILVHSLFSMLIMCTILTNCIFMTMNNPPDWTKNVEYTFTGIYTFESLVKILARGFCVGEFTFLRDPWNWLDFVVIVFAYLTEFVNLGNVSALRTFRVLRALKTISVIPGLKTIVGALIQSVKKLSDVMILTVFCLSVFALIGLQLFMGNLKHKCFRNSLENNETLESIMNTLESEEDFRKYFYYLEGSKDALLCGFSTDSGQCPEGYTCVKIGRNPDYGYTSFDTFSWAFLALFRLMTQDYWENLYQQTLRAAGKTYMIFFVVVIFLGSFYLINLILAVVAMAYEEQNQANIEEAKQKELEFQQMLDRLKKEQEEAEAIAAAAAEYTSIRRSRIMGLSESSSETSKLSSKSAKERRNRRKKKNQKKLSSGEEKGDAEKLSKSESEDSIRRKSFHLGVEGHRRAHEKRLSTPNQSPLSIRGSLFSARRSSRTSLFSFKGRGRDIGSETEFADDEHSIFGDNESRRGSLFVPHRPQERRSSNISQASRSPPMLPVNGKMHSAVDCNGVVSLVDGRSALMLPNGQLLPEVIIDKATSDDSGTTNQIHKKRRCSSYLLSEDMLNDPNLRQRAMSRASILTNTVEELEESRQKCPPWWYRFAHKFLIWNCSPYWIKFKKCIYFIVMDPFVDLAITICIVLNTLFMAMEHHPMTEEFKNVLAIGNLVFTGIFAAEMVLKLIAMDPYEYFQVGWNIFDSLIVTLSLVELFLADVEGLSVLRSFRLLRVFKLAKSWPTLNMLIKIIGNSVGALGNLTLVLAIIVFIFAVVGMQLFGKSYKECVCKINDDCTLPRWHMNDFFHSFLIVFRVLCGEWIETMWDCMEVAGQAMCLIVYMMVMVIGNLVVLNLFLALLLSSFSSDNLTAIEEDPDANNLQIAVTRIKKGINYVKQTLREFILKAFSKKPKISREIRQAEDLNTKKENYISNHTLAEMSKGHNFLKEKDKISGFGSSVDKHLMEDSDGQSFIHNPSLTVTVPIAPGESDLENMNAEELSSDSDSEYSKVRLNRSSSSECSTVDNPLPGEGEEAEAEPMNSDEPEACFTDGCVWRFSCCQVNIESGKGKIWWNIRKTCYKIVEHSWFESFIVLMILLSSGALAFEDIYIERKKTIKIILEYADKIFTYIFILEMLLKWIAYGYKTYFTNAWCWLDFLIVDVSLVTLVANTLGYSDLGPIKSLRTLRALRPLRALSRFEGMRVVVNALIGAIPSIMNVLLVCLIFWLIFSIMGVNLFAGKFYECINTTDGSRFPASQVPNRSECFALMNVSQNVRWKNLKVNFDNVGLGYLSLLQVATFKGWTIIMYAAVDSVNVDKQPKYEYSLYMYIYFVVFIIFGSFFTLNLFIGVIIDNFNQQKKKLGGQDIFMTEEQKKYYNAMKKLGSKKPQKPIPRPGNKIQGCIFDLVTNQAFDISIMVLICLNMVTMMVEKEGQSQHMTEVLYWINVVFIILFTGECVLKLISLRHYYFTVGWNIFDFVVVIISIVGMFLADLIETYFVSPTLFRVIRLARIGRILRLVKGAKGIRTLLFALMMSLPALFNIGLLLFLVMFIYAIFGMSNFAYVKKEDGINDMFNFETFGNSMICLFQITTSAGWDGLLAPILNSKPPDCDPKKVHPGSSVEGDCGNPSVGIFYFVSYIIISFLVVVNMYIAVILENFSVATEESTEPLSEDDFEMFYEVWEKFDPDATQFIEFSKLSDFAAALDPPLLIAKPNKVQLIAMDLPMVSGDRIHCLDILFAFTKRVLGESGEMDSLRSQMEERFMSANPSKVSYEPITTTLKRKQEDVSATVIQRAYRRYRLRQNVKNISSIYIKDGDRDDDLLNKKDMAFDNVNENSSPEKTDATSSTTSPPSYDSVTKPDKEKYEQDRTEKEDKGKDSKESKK
T1 sequence (Q07699 19-218 partner): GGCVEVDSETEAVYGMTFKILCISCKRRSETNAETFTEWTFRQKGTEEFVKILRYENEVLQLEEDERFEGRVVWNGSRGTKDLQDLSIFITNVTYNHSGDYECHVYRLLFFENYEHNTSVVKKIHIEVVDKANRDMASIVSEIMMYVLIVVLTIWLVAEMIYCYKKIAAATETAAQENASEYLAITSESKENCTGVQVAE
Assay [4] concerns TTX-resistant Nav current in rat DRG neurons. The class given is cell-based.
Assay [5] deals with T1, human Nav1.7 channels. In words: Activation / peak conductance protocol, automated patch-clamp. In kind it is cell-based. For orientation: In patch-clamp work, channel activity is measured electrically.
Assay [6] has as its target T1, human Nav1.7 channels. In words: Steady-state inactivation. In kind it is cell-based.
For assay [7], the system named is voltage-gated sodium (Nav) channels in rat CA1 hippocampal neurons. As to conditions: cited from earlier work.
Assay [8] relates to TTX-sensitive Nav channels. As to conditions: read-out: IC50 of TTX-sensitive channels; cited from earlier work.

The term IC50 denotes the concentration at which inhibition is half-maximal. On to `C=C(C)[C@@H]1CCC(C)=C[C@H]1c1c(O)cc(CCCCC)cc1O` [CBD, cannabidiol], for which the “Concentration/fold state dependence (ratio)” value in the assay on Nav channels [1] stood at 1.1. Moreover, the results for the State dependence in the assay with Nav channels [2] (Table 1) and in the assay with Nav channels [2] were ~10^a and ~ 10 fold, respectively. The IC50 in the assay on Nav channels [2] (read-out: IC50 on Nav channels, Table 1) was 1 to 12 µM.
As a reminder, the Hill slope is a measure of the steepness of the concentration-response curve. The term Ki denotes a measure of affinity in units of concentration, obtained from inhibition or displacement. Low values mean tighter binding, high ones weaker binding. As usually defined, the inhibition is how much of the control response was suppressed. On to `CCCCCc1cc(O)c(C/C=C(\C)CCC=C(C)C)c(O)c1` [CBG, cannabigerol], for which, on human Nav1.7 channels [3], the “Concentration/fold state dependence (ratio)” value was determined as 2; the “Fold less potent than CBD in inhibiting Nav channels” value is on record as “about 2 fold”; the Hill slope was 1.2 ± 0.3 and 2.3 ± 0.5 and 1.6 ± 0.4; the “Hill slopes (range across holding potentials)” value is reported as 1.2–2.3. In addition, on human Nav1.7 channels [3], the inhibitory constant (Ki) fell in the range of 2 to 20 µM; the “Nav channels prevented from opening” value is listed as ~ 30%; the State dependence is reported as approximately 10; the “State dependence (inactivated vs resting state potency)” value was ~ 10 fold and ~ 11 fold. Further, the “average Hill-slope” value on human Nav1.7 channels [3] is reported as ~ 2. The compound further returned an IC50 on human Nav1.7 channels [3] (IC50 (range across holding potentials), holding potentials −110 to −90 mV) of 4.6 to 18.8 µM. The compound also showed an IC50 at human Nav1.7 channels [3] (IC50, holding potential −90 mV, pulse 180 (3 min), mean ± SEM) of 4.6 ± 1.1 µM. The compound further returned an IC50 at human Nav1.7 channels [3] (IC50, holding potential −100 mV, pulse 180 (3 min), mean ± SEM) of 9.3 ± 1 µM. On human Nav1.7 channels [3] (IC50, holding potential −110 mV, pulse 180 (3 min), mean ± SEM), this compound showed an IC50 of 18.8 ± 2.9 µM. Further, in assay [4], the “Inhibition of TTX-resistant current” value was ~ 50%. Further, on human Nav1.7 channels [5], the IC50 was approximately 3.5 µM, the “Reduction in sodium current density” value was ~ 90%, the V1/2 of activation was −46.4 ± 5.6 mV and the “Vehicle Gmax left” value was ~ 10%. Moreover, the slope of activation on human Nav1.7 channels [5] turned out to be 5.2 ± 2.2. Further, at human Nav1.7 channels [6], the “Hyperpolarization of voltage dependence of SSI” value is ~ 12 mV, the “Percentage shift of inactivation V1/2 relative to vehicle” value was “about 25%” and the “Rate time constant of open-state inactivation vs vehicle” value is given as “did not differ significantly”. At human Nav1.7 channels [6] (IC50 for V1/2 (inactivation shift), Hill fit of normalized data, estimated), the IC50 was approximately 13.2 µM. Besides, on human Nav1.7 channels [6] (read-out: Inhibition of current at the test pulse), the inhibition at 15 µM was approximately 90%. Besides, the “Effect on Nav current density and action potential frequency” value in assay [7] is “decreases current density”.
On to `NC1=N[C@H](O)[C@H]2[C@H]3O[C@]4(O)O[C@@H]([C@@H](O)[C@@]2(N1)[C@@H]4O)[C@]3(O)CO` [TTX, tetrodotoxin], for which the IC50 in assay [8] was 0.01 to 0.03 µM.
